# Columns and labels:
# Assay type in all cases: biochemical
# [1] = target: T1, Pim-2 (Homo sapiens, UniProt Q9P1W9); assay: TR-FRET assay, Pim-2 kinase (phosphorylation of Bad Ser112); details: TR-FRET; ATP 40 μM; read-out: IC50 Pim2
# T1 construct: His6-labelled recombinant full-length human Pim-1, Pim-2 or Pim-3 protein; His6; made in house
# Protocol: (§1) In order to determine the inhibition of activation of Pim kinases, the compounds of the invention are tested in accordance with a routinely used in vitro TR-FRET assay (Time-Resolved Fluorescence Resonance Energy Transfer). […] For the assay, the following reagents are used:
# (§2) Pim kinase—His6-labelled recombinant full-length human Pim-1, Pim-2 or Pim-3 protein (prepared according to J. Mol. Biol. (2005) 348, 183-193); Bad—His6-labelled recombinant full-length human Bad protein (prepared according to J. Mol. Biol. (2005) 348, 183-193); α-His6-APC—murine monoclonal antibody conjugated to allophycocyanin SureLight™ directed against the His6 label (Perkin-Elmer, No. AD0059H, Waltham, Mass., United States); • β-P˜Bad-Eu—murine monoclonal antibody (Cell Signaling Technology #9296B, Danvers, Mass., United States) directed against phosphoBad (Ser112) (7E11) custom-labelled by Perkin-Elmer with the reagent LANCE™ Eu-W1024.
# (§3) The assay is based on Perkin-Elmer's LANCE™ technology: the Eu-labelled antibody binds to phospho-Ser112 and generates a TR-FRET signal by interaction with the APC-labelled antibody directed against His6, bound to the His6 label of Bad. The TR-FRET signal is detected using a SpectraMax M5 plate reader (Molecular Devices) with the following settings: λex=340 nm, λem1=615 nm, λem2=665 nm. The ratio of the fluorescence signal at 665 nm to the fluorescence signal at 615 nm is used as the signal reading for the IC50 (calculation is based on the 4-parameter logistic model). The assay is performed in a 384-well format; the liquid manipulations are performed using a Beckman 3000 liquid manipulations station. The test compounds are tested at 10 concentration points in duplicate; the highest compound concentration is typically equal to 30 μM. The ATP concentration is equal to 40 μM, which is equivalent to the apparent KM value.
# [2] = target: T2, Pim-1 (Homo sapiens, UniProt P11309); assay: TR-FRET assay, Pim-1 kinase (phosphorylation of Bad Ser112); details: TR-FRET; ATP 40 μM; read-out: IC50 Pim1
# T2 construct: His6-labelled recombinant full-length human Pim-1, Pim-2 or Pim-3 protein; His6; made in house
# T2 sequence (P11309 whole entry): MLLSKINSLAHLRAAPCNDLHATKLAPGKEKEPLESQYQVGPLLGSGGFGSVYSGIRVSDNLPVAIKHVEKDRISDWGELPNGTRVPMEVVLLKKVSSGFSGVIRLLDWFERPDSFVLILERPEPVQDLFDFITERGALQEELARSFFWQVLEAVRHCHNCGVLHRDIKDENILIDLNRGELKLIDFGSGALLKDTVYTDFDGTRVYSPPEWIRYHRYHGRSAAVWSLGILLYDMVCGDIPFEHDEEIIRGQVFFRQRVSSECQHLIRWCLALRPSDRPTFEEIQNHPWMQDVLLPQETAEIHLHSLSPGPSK
# Protocol: as §1, §2, §3
# [3] = target: T3, Pim-3 (Homo sapiens, UniProt Q86V86); assay: TR-FRET assay, Pim-3 kinase (phosphorylation of Bad Ser112); details: TR-FRET; ATP 40 μM; read-out: IC50 Pim3
# T3 construct: His6-labelled recombinant full-length human Pim-1, Pim-2 or Pim-3 protein; His6; made in house
# Protocol: as §1, §2, §3
# T1 sequence (Q9P1W9 whole entry): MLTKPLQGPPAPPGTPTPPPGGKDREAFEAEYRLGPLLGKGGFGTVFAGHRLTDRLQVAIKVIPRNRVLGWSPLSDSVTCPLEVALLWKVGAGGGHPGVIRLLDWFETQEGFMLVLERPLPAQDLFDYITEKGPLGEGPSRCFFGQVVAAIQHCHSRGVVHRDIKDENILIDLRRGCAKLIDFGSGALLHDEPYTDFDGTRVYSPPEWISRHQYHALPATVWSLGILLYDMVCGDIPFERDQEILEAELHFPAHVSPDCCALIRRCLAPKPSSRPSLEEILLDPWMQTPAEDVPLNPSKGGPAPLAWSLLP
Structure (SMILES),IC50 [1],IC50 [2],IC50 [3]
"CN(C)c1cccc(-c2c(F)cnc3[nH]c4cnc(-c5cccnc5)cc4c23)c1 [Example 58, 3-[3-fluoro-6-(pyrid-3-yl)-9H-pyrrolo[2,3-b:5,4-c′]dipyrid-4-yl]-N,N-dimethylaniline]",> 5000 nM,1000 to 5000 nM,1000 to 5000 nM
"Cn1ccc2cc(-c3c(F)cnc4[nH]c5cnc(-c6cccnc6)cc5c34)ccc21 [Example 59, 3-fluoro-4-(1-methyl-1H-indol-5-yl)-6-(pyrid-3-yl)-9H-pyrrolo[2,3-b:5,4-c′]-dipyridine]",> 5000 nM,1 to 100 nM,100 to 1000 nM
"CCOc1ncccc1-c1c(F)cnc2[nH]c3cnc(-c4cccnc4)cc3c12 [Example 64, 4-(2-ethoxypyrid-3-yl)-3-fluoro-6-(pyrid-3-yl)-9H-pyrrolo[2,3-b:5,4-c′]dipyridine]",> 5000 nM,100 to 1000 nM,1000 to 5000 nM
"O=C(O)CCC(=O)Nc1cccc(-c2c(F)cnc3[nH]c4cnc(-c5cccnc5)cc4c23)c1 [Example 65, acide 4-({3-[3-fluoro-6-(pyrid-3-yl)-9H-pyrrolo[2,3-b:5,4-c′]-dipyrid-4-yl]-phenyl}amino)-4-oxobutanoic acid]",> 5000 nM,100 to 1000 nM,1000 to 5000 nM
"Cn1nccc1-c1c(F)cnc2[nH]c3cnc(-c4cccnc4)cc3c12 [Example 67, 3-fluoro-4-(1-methyl-1H-pyrazol-5-yl)-6-(pyrid-3-yl)-9H-pyrrolo[2,3-b:5,4-c']-dipyridine]",> 5000 nM,1000 to 5000 nM,1000 to 5000 nM
"Fc1cnc2[nH]c3cnc(-c4cccnc4)cc3c2c1-c1cccnc1 [Example 69, 3-fluoro-4,6-di(pyrid-3-yl)-9H-pyrrolo[2,3-b:5,4-c′]dipyridine]",> 5000 nM,100 to 1000 nM,100 to 1000 nM
"CS(=O)(=O)Nc1ccccc1-c1c(F)cnc2[nH]c3cnc(-c4cccnc4)cc3c12 [Example 70, N-{2-[3-fluoro-6-(pyrid-3-yl)-9H-pyrrolo[2,3-b:5,4-c′]-dipyrid-4-yl]phenyl}-methanesulfonamide]",> 5000 nM,1000 to 5000 nM,> 5000 nM
"CS(=O)(=O)c1cccc(-c2c(F)cnc3[nH]c4cnc(-c5cccnc5)cc4c23)c1 [Example 72, 3-fluoro-4-[3-(methylsulfonyl)phenyl]-6-(pyrid-3-yl)-9H-pyrrolo[2,3-b:5,4-c′]dipyridine]",> 5000 nM,100 to 1000 nM,1000 to 5000 nM
"COc1ncc(-c2c(F)cnc3[nH]c4cnc(-c5cccnc5)cc4c23)cn1 [Example 73, 3-fluoro-4-(2-methoxypyrimidin-5-yl)-6-(pyrid-3-yl)-9H-pyrrolo[2;3-b:5,4-c′]dipyridine]",> 5000 nM,100 to 1000 nM,1000 to 5000 nM
"CN1CCC(N2CCN(c3c(F)cnc4[nH]c5cnc(-c6cccnc6)cc5c34)CC2)CC1 [Example 77, 3-fluoro-4-[4-(1-methylpiperid-4-yl)piperazin-1-yl]-6-(pyrid-3-yl)-9H-pyrrolo-[2,3-b:5,4-c′]-dipyridine]",> 5000 nM,100 to 1000 nM,100 to 1000 nM
"Fc1cnc2[nH]c3cnc(-c4cccnc4)cc3c2c1N1CCC(N2CCOCC2)CC1 [Example 78, 3-fluoro-4-[4-(morpholin-4-yl)piperid-1-yl]-6-(pyrid-3-yl)-9H-pyrrolo[2,3-b:5,4-c′]-dipyridine]",> 5000 nM,1 to 100 nM,100 to 1000 nM
"CN1CCCN(c2c(F)cnc3[nH]c4cnc(-c5cccnc5)cc4c23)CC1 [Example 80, 3-fluoro-4-(4-methyl-1,4-diazepan-1-yl)-6-(pyrid-3-yl)-9H-pyrrolo[2,3-b:5,4-c′]dipyridine]",> 5000 nM,100 to 1000 nM,100 to 1000 nM
"Fc1cnc2[nH]c3cnc(-c4cccnc4)cc3c2c1N1CCC(N2CCCCC2)CC1 [Example 83, 4-(1.4′-bipiperid-1′-yl)-3-fluoro-6-(pyrid-3-yl)-9H-pyrrolo[2,3-b:5,4-c′]-dipyridine]",> 5000 nM,100 to 1000 nM,100 to 1000 nM
"Fc1cnc2[nH]c3cnc(-c4cccnc4)cc3c2c1N1CCC(N2CCCC2)CC1 [Example 85, 3-fluoro-6-(pyrid-3-yl)-4-[4-(pyrrolidin-1-yl)piperid-1-yl]-9H-pyrrolo[2,3-b:5,4-c′]-dipyridine]",1000 to 5000 nM,1 to 100 nM,100 to 1000 nM
"CC(C)(N)C#Cc1c(F)cnc2[nH]c3cnc(-c4cccnc4)cc3c12 [Example 90, 4-[3-fluoro-6-(pyrid-3-yl)-9H-pyrrolo[2,3-b:5,4-c′]dipyrid-4-yl]-2-methylbut-3-yn-2-amine]",> 5000 nM,100 to 1000 nM,100 to 1000 nM

# Now from value to compound:
IC50 [1],IC50 [2],IC50 [3],Structure (SMILES)
1000 to 5000 nM,1000 to 5000 nM,100 to 1000 nM,"Cc1cscc1-c1c(F)cnc2[nH]c3cnc(-c4cccnc4)cc3c12 [Example 57, 3-fluoro-4-(4-methyl-thiophen-3-yl)-6-(pyrid-3-yl)-9H-pyrrolo[2,3-b:5,4-c′]-dipyridine]"
1000 to 5000 nM,1 to 100 nM,100 to 1000 nM,"Cn1cc(-c2c(F)cnc3[nH]c4cnc(-c5cccnc5)cc4c23)cn1 [Example 60, 3-fluoro-4-(1-methyl-1H-pyrazol-4-yl)-6-(pyrid-3-yl)-9H-pyrrolo[2,3-b:5,4-c′]-dipyridine]"
1000 to 5000 nM,1 to 100 nM,1 to 100 nM,"CC(=O)NCc1ccc(-c2c(F)cnc3[nH]c4cnc(-c5cccnc5)cc4c23)cc1 [Example 61, N-{4-[3-fluoro-6-(pyrid-3-yl)-9H-pyrrolo[2,3-b:5,4-c′]-dipyrid-4-y]benzyl}-acetamide]"
1000 to 5000 nM,1 to 100 nM,100 to 1000 nM,"CC(C)C(=O)Nc1ccc(-c2c(F)cnc3[nH]c4cnc(-c5cccnc5)cc4c23)cc1 [Example 68, N-{4-[3-fluoro-6-(pyrid-3-yl)-9H-pyrrolo[2,3-b:5,4-c']-dipyrid-4-yl]phenyl}-2-methylpropanamide]"
100 to 1000 nM,1 to 100 nM,100 to 1000 nM,"Fc1cnc2[nH]c3cnc(-c4cccnc4)cc3c2c1-c1cn[nH]c1 [Example 71, 3-fluoro-4-(1H-pyrazol-4-yl)-6-(pyrid-3-yl)-9H-pyrrolo[2,3-b:5,4-c′]-dipyridine]"
1000 to 5000 nM,100 to 1000 nM,100 to 1000 nM,"Nc1ccc(-c2c(F)cnc3[nH]c4cnc(-c5cccnc5)cc4c23)cn1 [Example 74, 5-[3-fluoro-6-(pyrid-3-yl)-9H-pyrrolo[2,3-b,-c′]dipyrid-4-yl]pyrid-2-amine]"
1000 to 5000 nM,1 to 100 nM,100 to 1000 nM,"CC(C)N1CCN(c2c(F)cnc3[nH]c4cnc(-c5cccnc5)cc4c23)CC1 [Example 75, 3-fluoro-4-[4-(propan-2-yl)-piperazin-1-yl]-6-(pyrid-3-yl)-9H-pyrrolo[2,3-b:5,4-c′]dipyridine]"
100 to 1000 nM,1 to 100 nM,1 to 100 nM,"Fc1cnc2[nH]c3cnc(-c4cccnc4)cc3c2c1N1CCCCC1 [Example 76, 3-fluoro-4-(piperid-1-yl)-6-(pyrid-3-yl)-9H-pyrrolo[2,3-b:5,4-c′]dipyridine]"
1000 to 5000 nM,1 to 100 nM,100 to 1000 nM,"OCCN1CCN(c2c(F)cnc3[nH]c4cnc(-c5cccnc5)cc4c23)CC1 [Example 81, 2-{4-[3-fluoro-6-(pyrid-3-yl)-9H-pyrrolo[2,3-b:5,4-c′]dipyrid-4-yl]piperazin-1-yl}ethanol]"
1000 to 5000 nM,1 to 100 nM,100 to 1000 nM,"CN1CCN(C2CCN(c3c(F)cnc4[nH]c5cnc(-c6cccnc6)cc5c34)CC2)CC1 [Example 82, 3-fluoro-4-[4-(4-methylpiperazin-1-yl)piperid-1-yl]-6-(pyrid-3-yl)-9H-pyrrolo-[2,3-b:5,4-c′]-dipyridine]"
1000 to 5000 nM,100 to 1000 nM,100 to 1000 nM,"CN(C)C1CCN(c2c(F)cnc3[nH]c4cnc(-c5cccnc5)cc4c23)CC1 [Example 84, 1-[3-fluoro-6-(pyrid-3-yl)-9H-pyrrolo[2,3-b:5,4-c′]dipyrid-4-yl]-N,N-dimethylpiperid-4-amine]"
100 to 1000 nM,1 to 100 nM,1 to 100 nM,"Fc1cnc2[nH]c3cnc(-c4cccnc4)cc3c2c1N1CCN(CCCN2CCOCC2)CC1 [Example 87, 3-fluoro-4-{4-[3-(morpholin-4-yl)propyl]piperazin-1-yl}-6-(pyrid-3-yl)-9H-pyrrolo-[2,3-b:5,4-c′]-dipyridine]"
